# Assay results: US20100160295A1, “TREATMENT OF RESTLESS LEG SYNDROME AND SLEEP DISORDERS” (SYNOSIA THERAPEUTICS, priority 2008, published 2010)
# System: Subjects with RLS
# Experiment: Medical Outcomes Study (MOS) Sleep Scale, placebo-controlled study in RLS subjects
# Assay type: in vivo, human
# Description: The study multi-centre, randomized, double-blind, parallel-groups, placebo-controlled study with 2 treatment arms, oral HPPD inhibitor (2-(2-nitro-4-trifluoromethylbenzoyl)-1,3-cyclohexanedione) and placebo. Subjects were randomized to either treatment with an HPPD inhibitor or placebo in a 2:1 ratio. The subjects were dosed with 4 mg on day 1, and 2 mg/day on days 2-14. The total duration of treatment with study drug for each subject was 14 consecutive days ending at the day of the final sleep lab assessment (Day 14), with a follow-up examination 29 days after Baseline.
# Efficacy parameters were changes between Baseline and end of treatment in objective measures of Periodic Limb Movements (PLM) and sleep efficiency and in investigator evaluations of severity of RLS symptoms as well as in subject's report on severity of RLS symptoms, sleep disturbances and depressive feelings. Parameters measured included: • Periodic Limb Movement (PLM) Index, defined as the number of PLM events occurring during time-in-bed (PLMI/h TIB) • Periodic Limb Movements during Sleep Index, defined as the number of PLMs per hour of total sleep time (PLMSI/h TST) • PLM arousal index, defined as the number of PLM with arousals per hour of total sleep time (PLMSAI/h TST) • Periodic Limb Movements during wakefulness index, defined as the number of PLMs per hour occurring during wakefulness within time-in-bed (PLMWI/h TIB) • Sleep Efficiency (SE) expressed as the percentage total sleep time (TST) of total time in bed (TIB) • Total Sleep Time (TST) • Total number of arousals per TST • Sleep latency • Restless Legs Scale—6 items (RLS-6) (Kohnen et al, 2004) • IRLS total score change from start of treatment to end • Time to requiring rescue medication (defined as time to dropout due to the need of rescue medication for intolerable RLS symptoms) • Physicians' Global Impression, rated by the Clinical Global Impressions Scale (CGI): severity, change and treatment effect • CGI responders defined as the proportion of subjects who improved “much” or “very much” on CGI item “change”. • Patients' Global Impression (PGI) scale Item 1 (efficacy) • Medical Outcomes Study (MOS) Sleep Scale • Beck Depression Inventory (BDI) • In addition, a patient diary was to be completed between days 8 and 15 • HPPD inhibitor plasma concentrations at Baseline, end of treatment and follow-up • Tyrosine plasma concentration at Baseline, end of treatment and follow-up.
# Subjects with RLS received either placebo (7 subjects) or an HPPD inhibitor (13 subjects) given as 4 mg on day 1, then 2 mg per day for days 2-14 of the trial. Various parameters relevant to RLS were monitored during the course of treatment, in particular the quality of their sleep patterns using a standard assessment scale (Medical Outcomes Study (MOS) Sleep Scale). Individuals were asked to complete a standard evaluation of their ‘normal’ sleep experience at the start of the trial (Baseline) and again at the end of treatment (EoT), with the various parameters scored according to the attached document.
# The MOS Sleep Scale is a comprehensive subject completed sleep questionnaire consisting of 12 items (Hays and Stewart, 1992; Hays et al., 2005). Each item measures a unique aspect or characteristic of sleep. Overall, the MOS Sleep Scale measures the following:
# All items, except for item 2, were transformed in a ‘0-100’ scale.
# For the analysis of the MOS sleep scale, the following subscales were determined as means of the involved items (in part, after reversing the ratings in the ‘0-100’ scale, denoted by (R) in the item sequence):
# Subjects self-reported the length of time it took for them to fall asleep and the average number of hours of sleep each night. Scores for all other items range from 1 (all of the time) to 6 (none of the time).
# The MOS Sleep Scale was completed at Baseline (Visit 2) and final examination (Visit 3).
# [1] = EoT Visit, M-ITT, none of the placebo patients
# [2] = EoT, PPS n = 13, 4 mg day 1, 2 mg/day days 2-14
# [3] = EoT, PPS n = 13, item 2 raw scores
# [4] = M-ITT, HPPD inhibitor vs placebo
# [5] = change from Baseline to EoT, PPS n = 13
smiles,measurement,setting,value
"O=C1CCCC(=O)C1C(=O)c1ccc(C(F)(F)F)cc1[N+](=O)[O-] [HPPD Inhibitor, 2-(2-nitro-4-trifluoromethylbenzoyl)-1,3-cyclohexanedione]","patients reporting optimal sleep (7-8 hours), number",[1],5 patients
same,"patients reporting optimal sleep (7-8 hours), percentage",[1],35.7%
same,"patients reporting optimal sleep (7-8 hours), number","EoT Visit, PPS",4 patients
same,"MOS Short of Breath Scale, absolute, Median","EoT, PPS n = 13",0.0
same,"MOS Short of Breath Scale, absolute, Range","EoT, PPS n = 13",0.0-40.0
same,"MOS Sleep Adequacy Scale, absolute, Median","EoT, PPS n = 13",50.0
same,"MOS Sleep Adequacy Scale, absolute, Range","EoT, PPS n = 13",0.0-80.0
same,"MOS Sleep Problems Index I, absolute, Median","EoT, PPS n = 13",33.3
same,"MOS Sleep Problems Index I, absolute, Range","EoT, PPS n = 13",10.0-70.0
same,"MOS Sleep Problems Index II, absolute, Median","EoT, PPS n = 13",32.8
same,"MOS Sleep Problems Index II, absolute, Range","EoT, PPS n = 13",11.1-74.4
same,"MOS Snoring Scale, absolute, Median","EoT, PPS n = 13",20.0
same,"MOS Snoring Scale, absolute, Range","EoT, PPS n = 13",0.0-40.0
same,"MOS Somnolence Scale, absolute, Median","EoT, PPS n = 13",13.3
same,"MOS Somnolence Scale, absolute, Range","EoT, PPS n = 13",6.7-66.7
same,"MOS Short of Breath Scale, absolute, M ± SD",[2],9.2 ± 15.5
same,"MOS Sleep Disturbance Scale, absolute, Median",[2],43.8
same,"MOS Sleep Disturbance Scale, absolute, Range",[2],10.0-72.5
same,"MOS Sleep Problems Index I, absolute, M ± SD",[2],36.7 ± 16.3
same,"MOS Sleep Problems Index II, absolute, M ± SD",[2],37.9 ± 16.8
same,"MOS Snoring Scale, absolute, M ± SD",[2],20.0 ± 16.3
same,"MOS Somnolence Scale, absolute, M ± SD",[2],24.6 ± 19.7
same,"MOS Sleep Disturbance Scale, absolute, M ± SD","EoT, PPS n = 13, 4 mg day 1, 2 mg/day days 2-14, 0-100 scale, higher = stronger sleep problems",41.8 ± 16.7
same,"MOS Sleep Adequacy Scale, absolute, M ± SD","EoT, PPS n = 13, 4 mg day 1, 2 mg/day days 2-14, higher values = better",46.9 ± 25.9
same,"MOS Sleep Quantity, absolute, Median",[3],6.0 h
same,"MOS Sleep Quantity, absolute, Range",[3],4.0 to 8.0 h
same,"MOS Sleep Quantity, absolute, M ± SD","EoT, PPS n = 13, item 2 raw scores, 4 mg day 1, 2 mg/day days 2-14",6.1 ± 1.0 h
same,"MOS sleep adequacy: difference HPPD inhibitor—placebo, LS mean","M-ITT, 95%-CI: 1.30, 52.64, p=0.0405 two-sided from ANCOVA",26.97
same,"MOS sleep disturbance: difference HPPD inhibitor—placebo, LS mean","M-ITT, 95%-CI: −35.53, 0.93, p=0.0616 two-sided from ANCOVA",−17.30
same,"MOS sleep problems index II: difference HPPD inhibitor—placebo, LS mean","M-ITT, 95%-CI: −36.18, 2.61, p=0.0857 two-sided from ANCOVA",−16.78
same,"MOS sleep problems index I: difference HPPD inhibitor—placebo, LS mean","M-ITT, 95%-CI: −37.80, 0.31, p=0.0534 two-sided from ANCOVA",−18.75
same,MOS sleep adequacy: effect size d,[4],0.50
same,MOS sleep disturbance: effect size d,[4],0.55
same,MOS sleep problems index I: effect size d,[4],0.54
same,MOS sleep problems index II: effect size d,[4],0.41
same,"MOS Short of Breath Scale, change, M ± SD",[5],−7.7 ± 19.2
same,"MOS Short of Breath Scale, change, Median",[5],0.0
same,"MOS Short of Breath Scale, change, Range",[5],−40.0-20.0
same,"MOS Sleep Adequacy Scale, change, M ± SD",[5],26.9 ± 35.5
same,"MOS Sleep Adequacy Scale, change, Median",[5],30.0
same,"MOS Sleep Adequacy Scale, change, Range",[5],−50.0-80.0
same,"MOS Sleep Disturbance Scale, change, M ± SD",[5],−35.0 ± 27.5
